Laboratory results published in PubChem BioAssay AID330 (DTP/NCI, 2004).
Several values for one entry are separate records, joined by “and”; a condition that tells them apart may be missing. Equal entries are not always repeated. Toxic doses and inconclusive results are not listed. How the source made its calls: active means survival T/C of 150% or more; inactive means T/C below 125% in these data.

Test system: P388 leukemia ip, CD2F1 mice, survival T/C
Experiment: NCI In Vivo Anticancer Drug Screen. Data for tumor model P388 Leukemia (intraperitoneal) in CD2F1 (CDF1) mice
Conditions: endpoint: median survival time, higher = longer survival
How it was run: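 Mice carrying the transplanted tumor received test compound or vehicle. Survival was recorded in each group, and the value is the treated-group measurement divided by that of the vehicle-treated control group.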

[1] = dose: 60.0 mg/kg/injection, schedule: Q01DX005 (ip), vehicle: saline with Tween-80
[2] = dose: 120.0 mg/kg/injection, schedule: Q01DX005 (ip), vehicle: saline with Tween-80
[3] = dose: 240.0 mg/kg/injection, schedule: Q01DX005 (ip), vehicle: saline with Tween-80

Measured: T/C

CCN=C(N)N/N=C(\C)c1ccc2c(c1)Cc1cc(/C(C)=N/NC(N)=NCC)ccc1-2
inactive: dose: 0.39 mg/kg/injection, schedule: Q04DX002 (ip), vehicle: saline with Tween-80 100 % of control | dose: 0.39 mg/kg/injection, schedule: Q04DX002 (ip), vehicle: saline 98 % of control | dose: 0.78 mg/kg/injection, schedule: Q04DX002 (ip), vehicle: saline with Tween-80 94 % of control | dose: 0.78 mg/kg/injection, schedule: Q04DX002 (ip), vehicle: saline 93 % of control | dose: 1.56 mg/kg/injection, schedule: Q04DX002 (ip), vehicle: saline with Tween-80 103 % of control | dose: 1.56 mg/kg/injection, schedule: Q04DX002 (ip), vehicle: saline 102 % of control | dose: 3.12 mg/kg/injection, schedule: Q04DX002 (ip), vehicle: saline with Tween-80 101 % of control | dose: 3.12 mg/kg/injection, schedule: Q04DX002 (ip), vehicle: saline 104 % of control | dose: 6.25 mg/kg/injection, schedule: Q04DX002 (ip), vehicle: saline with Tween-80 102 % of control | dose: 6.25 mg/kg/injection, schedule: Q04DX002 (ip), vehicle: saline 105 % of control | dose: 12.5 mg/kg/injection, schedule: Q04DX002 (ip), vehicle: saline 105 % of control | dose: 25.0 mg/kg/injection, schedule: Q04DX002 (ip), vehicle: saline 102 % of control

COc1ccc(C2=C(Cl)C(=O)N(c3ccc(OC)cc3)C(=O)C2(Cl)Cl)cc1
inactive: dose: 100.0 mg/kg/injection, schedule: Q04DX002 (ip), vehicle: Klucel (hydroxypropylcellulose) (HPC) 101 % of control | dose: 200.0 mg/kg/injection, schedule: Q04DX002 (ip), vehicle: Klucel (hydroxypropylcellulose) (HPC) 95 % of control | dose: 400.0 mg/kg/injection, schedule: Q04DX002 (ip), vehicle: Klucel (hydroxypropylcellulose) (HPC) 111 % of control

CCC1C(=O)CC(c2ccc(OC)cc2)OC1c1ccc(OC)cc1 (stereo unspecified)
inactive: dose: 50.0 mg/kg/injection, schedule: Q01DX009 (ip), vehicle: saline 88 % of control | dose: 100.0 mg/kg/injection, schedule: Q01DX009 (ip), vehicle: saline 96 % of control | dose: 200.0 mg/kg/injection, schedule: Q01DX009 (ip), vehicle: saline 99 % of control

CCC(c1ccc(OC)cc1)C(NCC(=O)NNC(=S)Nc1cccc(C)c1)c1ccc(OC)cc1 (stereo unspecified)
inactive: dose: 100.0 mg/kg/injection, schedule: Q01DX001 (ip), vehicle: saline with Tween-80 90 % of control | dose: 200.0 mg/kg/injection, schedule: Q01DX001 (ip), vehicle: saline with Tween-80 96 % of control

CNC1C(O)C2Oc3c(cc(O)c4c3C(=O)c3cc5c(c(O)c3C4=O)C(OC3OC(C)C(OC)C(C)(OC)C3OC)CC(C)(O)C5)C(C)(O2)C1O (stereo unspecified)
inactive: dose: 2.06 mg/kg/injection, schedule: Q04DX003 (ip), vehicle: other 97 % of control | dose: 4.12 mg/kg/injection, schedule: Q04DX003 (ip), vehicle: other 102 % of control | dose: 8.25 mg/kg/injection, schedule: Q04DX003 (ip), vehicle: other 103 % of control | dose: 16.5 mg/kg/injection, schedule: Q04DX003 (ip), vehicle: other 124 % of control | dose: 33.0 mg/kg/injection, schedule: Q04DX003 (ip), vehicle: other 124 % of control

COc1ccc([N+]2=Cc3cc(OC)c(OC)cc3CC2)cc1OC
inactive: dose: 6.25 mg/kg/injection, schedule: Q01DX009 (ip), vehicle: water 115 % of control | dose: 12.5 mg/kg/injection, schedule: Q01DX009 (ip), vehicle: water 108 % of control | dose: 25.0 mg/kg/injection, schedule: Q01DX009 (ip), vehicle: water 108 % of control | dose: 50.0 mg/kg/injection, schedule: Q01DX009 (ip), vehicle: water 103 % of control and 108 % of control | dose: 100.0 mg/kg/injection, schedule: Q01DX009 (ip), vehicle: water 104 % of control and 88 % of control

CCCCCCC1(O)OC(=O)C(C)=C1C (stereo unspecified)
inactive: dose: 12.5 mg/kg/injection, schedule: Q04DX003 (ip), vehicle: saline with Tween-80 110 % of control | dose: 25.0 mg/kg/injection, schedule: Q04DX003 (ip), vehicle: saline with Tween-80 94 % of control | dose: 50.0 mg/kg/injection, schedule: Q04DX003 (ip), vehicle: saline with Tween-80 94 % of control

O=C1c2ccccc2-c2c(NC(=O)C(Cl)Cl)cccc21
inactive: dose: 50.0 mg/kg/injection, schedule: Q01DX005 (ip), vehicle: Klucel (hydroxypropylcellulose) (HPC) 87 % of control | dose: 100.0 mg/kg/injection, schedule: Q01DX005 (ip), vehicle: Klucel (hydroxypropylcellulose) (HPC) 86 % of control | dose: 200.0 mg/kg/injection, schedule: Q01DX005 (ip), vehicle: Klucel (hydroxypropylcellulose) (HPC) 86 % of control

COc1cc2c(c(C3C(=O)N(C)c4ccc(Br)cc43)c1OC)OCO2 (stereo unspecified)
inactive: [1] 95 % of control | [2] 91 % of control | [3] 98 % of control

O=C(CC(=O)c1ccc(Cl)c(Cl)c1)Cc1ccc2ccccc2n1
inactive: [1] 90 % of control | [2] 97 % of control | [3] 88 % of control

COC1/C=C\OC2(C)Oc3c(C)c(O)c4c(O)c(c5sc(N)nc5c4c3C2=O)NC(=O)/C(C)=C\C=C\C(C)C(O)C(C)C(O)C(C)C(OC(C)=O)C1C (stereo unspecified)
inactive: dose: 25.0 mg/kg/injection, schedule: Q01DX009 (ip), vehicle: Klucel (hydroxypropylcellulose) (HPC) 100 % of control | dose: 50.0 mg/kg/injection, schedule: Q01DX009 (ip), vehicle: Klucel (hydroxypropylcellulose) (HPC) 102 % of control | dose: 100.0 mg/kg/injection, schedule: Q01DX009 (ip), vehicle: Klucel (hydroxypropylcellulose) (HPC) 100 % of control | dose: 200.0 mg/kg/injection, schedule: Q01DX009 (ip), vehicle: Klucel (hydroxypropylcellulose) (HPC) 100 % of control

CN1CCCCC1CCN1c2ccccc2Sc2ccc(S(C)=O)cc21 (stereo unspecified)
inactive: dose: 12.5 mg/kg/injection, schedule: Q01DX005 (ip), vehicle: saline 100 % of control and 102 % of control and 105 % of control | dose: 25.0 mg/kg/injection, schedule: Q01DX005 (ip), vehicle: saline 100 % of control and 105 % of control and 114 % of control | dose: 100.0 mg/kg/injection, schedule: Q01DX005 (ip), vehicle: saline 102 % of control and 103 % of control

CC(=O)OC1C2(CC3N4C(=O)C5(CO)SSC4(CC31O)C(=O)N5C)OC(C)C(C)(C)C2=O (stereo unspecified)
inactive: dose: 0.08 mg/kg/injection, schedule: Q01DX009 (ip), vehicle: saline 101 % of control | dose: 0.15 mg/kg/injection, schedule: Q01DX009 (ip), vehicle: saline 108 % of control | dose: 0.3 mg/kg/injection, schedule: Q01DX009 (ip), vehicle: saline 111 % of control | dose: 0.31 mg/kg/injection, schedule: Q01DX009 (ip), vehicle: saline 107 % of control | dose: 0.6 mg/kg/injection, schedule: Q01DX009 (ip), vehicle: saline 111 % of control | dose: 0.63 mg/kg/injection, schedule: Q01DX009 (ip), vehicle: saline with Tween-80 97 % of control | dose: 0.63 mg/kg/injection, schedule: Q01DX009 (ip), vehicle: saline 107 % of control | dose: 0.78 mg/kg/injection, schedule: Q01DX009 (oral), vehicle: saline 104 % of control | dose: 1.2 mg/kg/injection, schedule: Q01DX009 (ip), vehicle: saline 99 % of control | dose: 1.25 mg/kg/injection, schedule: Q01DX009 (ip), vehicle: saline 103 % of control and 111 % of control | dose: 1.56 mg/kg/injection, schedule: Q01DX009 (oral), vehicle: saline 105 % of control | dose: 3.12 mg/kg/injection, schedule: Q01DX009 (oral), vehicle: saline 100 % of control and 101 % of control | dose: 6.25 mg/kg/injection, schedule: Q01DX009 (oral), vehicle: saline 95 % of control | dose: 12.5 mg/kg/injection, schedule: Q01DX009 (oral), vehicle: saline 89 % of control

COC(=O)CC1(C(=O)OC)c2sc(-c3ccccc3)c(-c3ccccc3)c2N2CCCC21 (stereo unspecified)
inactive: dose: 11.25 mg/kg/injection, schedule: Q01DX009 (ip), vehicle: Klucel (hydroxypropylcellulose) (HPC) 97 % of control | dose: 22.5 mg/kg/injection, schedule: Q01DX009 (ip), vehicle: Klucel (hydroxypropylcellulose) (HPC) 97 % of control | dose: 45.0 mg/kg/injection, schedule: Q01DX009 (ip), vehicle: Klucel (hydroxypropylcellulose) (HPC) 97 % of control
